This note sets out measurements from the OPERA property sets (Mansouri et al. 2018).

Conditions in one data set: not given
The term melting point denotes the temperature, or range, at which the solid turns liquid. Take `N#CCc1cccc(CC#N)c1`: the melting point amounted to 33.5 °C. The term boiling point denotes the temperature of boiling at a given pressure. For the molecule `CCOC`, the boiling point was 7.4 °C, the log10 vapour pressure (mmHg) stood at 3.17 and the melting point was -113 °C. With `C#C[C@]1(O)CC[C@H]2[C@@H]3CCC4=CC(=O)CC[C@]4(C)[C@H]3CC[C@@]21C`, the melting point came out at 272 °C. On to `COC(=O)CCCCC(=O)O`, for which the melting point was 9 °C. For the molecule `Cc1cc([N+](=O)[O-])ccc1Cl`, the boiling point stood at 249 °C and the melting point was found to be 42.5 °C. `CCCCCCCCCCCCCCCCI` had a log10 vapour pressure (mmHg) of -4.78 and a melting point of 22 °C. `Cc1ccc(O)c(-n2nc3ccccc3n2)c1`: the melting point was 132 °C.

`c1ccc(Sc2ccccc2)cc1` showed a boiling point of 296 °C, a log10 vapour pressure (mmHg) of -2.12 and a melting point of -25.9 °C. Consider `NC(=O)Oc1ccccc1`, for which the melting point was determined as 150 °C. In turn, `Brc1cccc2c1Oc1ccccc1O2` gave a log10 vapour pressure (mmHg) of -4.58 and a melting point of 104 °C.

`Cc1ccc2ccc(C)cc2c1` came in with a boiling point of 265 °C, a log10 vapour pressure (mmHg) of -2.25 and a melting point of 97 °C. `N[C@H](CCC(=O)O)C(=O)O` came in with a melting point of 201 °C. `Clc1ccc(-c2c(Cl)c(Cl)c(Cl)c(Cl)c2Cl)c(Cl)c1` returned a log10 Koa of 10.5. `CCCc1ccc2c(c1)OCO2`: the boiling point amounted to 228 °C. Consider `O=[N+]([O-])c1cccc(I)c1`, for which the boiling point amounted to 280 °C and the melting point worked out at 38.5 °C. The matching figures for `CCOC(=O)c1ccccc1N`: 268 °C and 13 °C.

Molecule `ClC1=C(Cl)C2(Cl)C(CBr)CC1(Cl)C2(Cl)Cl` (stereo not given) displayed a melting point of 77 °C.

Molecule `COc1ccc(C(=O)O)c(OC)c1OC` showed a melting point of 100 °C. With `CCCS`, the boiling point was determined as 67.8 °C, the log10 Henry constant (atm·m³/mol) was -2.39, the log10 vapour pressure (mmHg) was determined as 2.19 and the melting point is -113 °C. For the molecule `CCCCCCCCCCCC=O`, the log10 vapour pressure (mmHg) is -1.82 and the melting point came out at 44.5 °C. `Cc1c(-c2ccccc2)[nH]c2ccccc12` yielded a melting point of 91.5 °C. `FC(F)=CCl` had a boiling point of -18.5 °C, a log10 vapour pressure (mmHg) of 3.55 and a melting point of -138 °C. As to `CCOC(=O)CCCC(C)=O`, the boiling point came to 222 °C. Same read-out and setting: next, `CCc1cccc(C)n1`: 160 °C.

In turn, `C[C@H]1C[C@@H]2[C@H]([C@@H](O)C[C@@]3(C)[C@H]2CC[C@]3(O)C(=O)CO)[C@@]2(C)C=CC(=O)C=C12` yielded a melting point of 232 °C. In turn, `CCCCCCCCCCCCC=O` had a melting point of 14 °C. `CC(=O)CCC(=O)O` displayed a boiling point of 246 °C, a log10 vapour pressure (mmHg) of -2.95 and a melting point of 33 °C.

`C/C=C/C=C/C(=O)OC` came in with a boiling point of 180 °C and a melting point of 15 °C. The molecule `CCCCO[N+](=O)[O-]` displayed a boiling point of 133 °C, a log10 Henry constant (atm·m³/mol) of -2.81 and a log10 vapour pressure (mmHg) of 0.919. As for `CC(C)OC(=O)[C@H](O)[C@@H](O)C(=O)OC(C)C`, the boiling point worked out at 275 °C.

With `O=[N+]([O-])c1cc(N(CCO)CCO)ccc1NCCO`, the melting point was 95.5 °C.

`CCCCCCCCCCCCCCCCCCCCc1ccccc1` returned a boiling point of 429 °C and a melting point of 44 °C.

On to `Cc1ccc(Cl)c(OCC(O)CNC(C)(C)C)c1` (stereo not given), for which the melting point was determined as 221 °C. In the case of `CC(C)(C)c1cc(-n2nc3ccc(Cl)cc3n2)c(O)c(C(C)(C)C)c1`, the ready biodegradability entry is listed as “not readily biodegradable”. For `COc1cc(C(=O)O)ccc1O`, the melting point came out at 212 °C and the ready biodegradability result was “readily biodegradable”. Take `O=C(NC(=O)c1ccccc1)c1ccccc1`: the melting point turned out to be 152 °C. On to `CC[Si](F)(F)CC`, for which the boiling point turned out to be 61 °C and the melting point is -78.7 °C. `C(=C(c1ccccc1)c1ccccc1)c1ccccc1`: the melting point was 72.5 °C.

With `C1CC2CC12` (stereo not given), the boiling point came out at 45.5 °C and the log10 vapour pressure (mmHg) is 2.56. For the molecule `C[C@]12CC[C@@H](O)C[C@H]1CC[C@@H]1[C@@H]2C(=O)C[C@@]2(C)[C@H]1CC[C@]2(O)C(=O)CO`, the melting point was determined as 214 °C. `c1ccc(-c2c3ccccc3c(-c3ccccc3)c3ccccc23)cc1` gave a log10 vapour pressure (mmHg) of -9.84 and a melting point of 246 °C. As to `C#C[C@]1(O)CC[C@H]2[C@@H]3CCC4=CC(=O)CCC4=C3C=C[C@@]21C`, the melting point stood at 169 °C. Consider `Cc1c2ccccc2c(C)c2c1ccc1ccccc12`, for which the log10 Koc (L/kg) was found to be 5.37 and the melting point turned out to be 122 °C. Consider `O=C(O)c1cc[n+]([O-])cc1`, for which the melting point amounted to 270 °C. Take `CN(C)[Si](C)(C)C`: the boiling point is 86 °C. Consider `O=C(OCC(F)(F)F)C(F)(F)F`, for which the boiling point came to 55 °C.

`CCOC(=O)c1ncn2c1CN(C)C(=O)c1cc(F)ccc1-2` yielded a melting point of 202 °C. Take `CCS`: the boiling point is 35.1 °C, the log10 Henry constant (atm·m³/mol) is -2.34, the log10 vapour pressure (mmHg) is 2.72 and the melting point was -148 °C.

`CCOC(=O)CC(=O)C(C)C` showed a boiling point of 173 °C and a melting point of -9 °C.

Turning to `CCCCCCCCCCCCCCCCCCCCCC(N)=O`, the ready biodegradability entry is recorded as “not readily biodegradable”. With `CC(C)SSC(C)C`, the boiling point is 177 °C and the melting point is -69 °C.

Molecule `COc1ccc2c(c1)CCCC2=O` returned a melting point of 78 °C. `N=C(N)NC(=O)Cc1c(Cl)cccc1Cl` came in with a melting point of 226 °C.

As for `N#Cc1cccc(Br)c1`, the boiling point worked out at 225 °C. As for `Clc1ccc(-c2cc(Cl)c(Cl)c(Cl)c2)cc1Cl`, the log10 Koa stood at 10.3.

`CCC(C)(CC(=O)O)CC(=O)O` came in with a boiling point of 261 °C and a melting point of 87 °C. With `Clc1cc(Cl)c2c(c1Cl)Oc1c(Cl)cc(Cl)c(Cl)c1O2`, the log10 vapour pressure (mmHg) is -10.3 and the melting point amounted to 238 °C. Consider `Clc1ccc2c(c1)oc1c(Cl)c(Cl)cc(Cl)c12`, for which the melting point is 190 °C.

`N#Cc1ncnc2nc[nH]c12` gave a melting point of 188 °C. `O=C(O)C1CC1`: the boiling point is 183 °C, the log10 vapour pressure (mmHg) was -0.62 and the melting point amounted to 18.5 °C. Consider `CC1CCCC(C(C)C)C1` (stereo not given), for which the boiling point was found to be 166 °C. On to `C1CCCCCCCCC1`, for which the boiling point is 202 °C, the log10 vapour pressure (mmHg) was -0.252 and the melting point turned out to be 10 °C. Consider `CC[C@H](c1ccc(O)cc1)[C@@H](CC)c1ccc(O)cc1`, for which the melting point is 186 °C. `CCC(=O)OCC1CCCO1` (stereo not given): the boiling point was 206 °C.

As to `ClCI`, the boiling point is 109 °C and the log10 Henry constant (atm·m³/mol) was -3.06. In the case of `CC(Oc1ccc(Cl)cc1Cl)C(=O)O` (stereo not given), the log10 Koc (L/kg) stood at 2.23, the log10 vapour pressure (mmHg) is -6.73 and the melting point was found to be 122 °C.

The data set is the same for the next values; noted with them: fish.
As for `COP(=O)(OC)Oc1ccc([N+](=O)[O-])c(C)c1`, the log10 BCF worked out at 0.44 and the log10 biotransformation half-life (days) was 0.01.

Take `CC(C)(C)c1cc(-n2nc3ccc(Cl)cc3n2)c(O)c(C(C)(C)C)c1`: the log10 BCF was 3.57 and the log10 biotransformation half-life (days) amounted to 0.72. The matching figures for `CCOP(=S)(OCC)Oc1cc(-c2ccccc2)on1`: 2.61 and 1.05. The molecule `Clc1ccc(-c2cc(Cl)c(Cl)c(Cl)c2)cc1Cl` displayed a log10 biotransformation half-life (days) of 2.4.
